ChEMBL document CHEMBL5154681, “Small Amphiphilic Peptides: Activity Against a Broad Range of Drug-Resistant Bacteria and Structural Insight into Membranolytic Properties” (J Med Chem, 2022)
In brackets after ≈: the same amount, converted by molar mass. Activity calls are given as the source filed them. The calls are words filed in the database; no cut-off is given here. Bridge positions count the residues as written; N and C are the ends. Square brackets hold non-standard residues; d marks the D form. Peptide text beside a SMILES is read from it. * marks the point of attachment. Dip = N[C@H](C(=O)O)C(c1ccccc1)c1ccccc1; 2Nal = N[C@@H](Cc1ccc2ccccc2c1)C(=O)O; X1 = CC[C@H](C)CCCCC(=O)*; Dab = NCC[C@H](N)C(=O)O

Columns and labels:
Escherichia coli [1] = assay: Antibacterial activity against Escherichia coli NDM-1-resistant ATCC BAA-2452 incubated for 24 hrs by microtiter plate method; assay type: functional
Escherichia coli [2] = assay: Antibacterial activity against Escherichia coli ATCC 25922 incubated for 24 hrs by microtiter plate method; assay type: functional; conditions: Escherichia coli
Escherichia coli [3] = assay: Antibacterial activity against Escherichia coli ATCC 25922 after 24 hrs in presence of 2 mM CaCl2 at by microtiter plate method; assay type: functional
Escherichia coli [4] = assay: Antibacterial activity against Escherichia coli ATCC 25922 after 24 hrs in presence of 1 mM of MgCl2 at by microtiter plate method; assay type: functional
Escherichia coli [5] = assay: Bactericidal activity against Escherichia coli ATCC BAA-2452 assessed as reduction of bacterial growth at MIC by counting formed colonies; assay type: functional, organism-based; conditions: time <= 4.0 hrs, TDE = time-dependent effect
Staphylococcus aureus [6] = assay: Bactericidal activity against methicillin resistant Staphylococcus aureus ATCC BAA-1556 assessed as reduction of bacterial growth at 4 times MIC by counting formed colonies; assay type: functional, organism-based; conditions: time <= 4.0 hrs, TDE = time-dependent effect
Escherichia coli [7] = assay: Antibacterial activity against Escherichia coli ATCC 25922 after 24 hrs in presence of 150 mM NaCl by microtiter plate method; assay type: functional
Escherichia coli [8] = assay: Antibacterial activity against Escherichia coli ATCC 25922 after 24 hrs in presence of fetal bovine serum by microtiter plate method; assay type: functional
Staphylococcus aureus [9] = assay: Antibacterial activity against Staphylococcus aureus ATCC 29213 incubated for 24 hrs by microtiter plate method; assay type: functional; conditions: Staphylococcus aureus, ATCC 29213, read-out: MIC
Pseudomonas aeruginosa [10] = assay: Antibacterial activity against imipenem resistant Pseudomonas aeruginosa ATCC BAA-1744 incubated for 24 hrs by microtiter plate method; assay type: functional
Pseudomonas aeruginosa [11] = assay: Antibacterial activity against Pseudomonas aeruginosa ATCC 10145 incubated for 24 hrs by microtiter plate method; assay type: functional
Escherichia coli [12] = assay: Antibacterial activity against Escherichia coli ATCC 25922 after 24 hrs in presence of 4.5 mM of KCl at by microtiter plate method; assay type: functional
Escherichia coli [13] = assay: Antibacterial activity against Escherichia coli ATCC 25922 assessed as reduction in microbial growth after 24 hrs in presence of 6 mM of NH4Cl at by microtiter plate method; assay type: functional
Acinetobacter baumannii = assay: Antibacterial activity against ciprofloxacin resistance Acinetobacter baumannii ATCC BAA1605 incubated for 24 hrs by microtiter plate method; assay type: functional
Pseudomonas aeruginosa [14] = assay: Antibacterial activity against Pseudomonas aeruginosa ATCC 27883 incubated for 24 hrs by microtiter plate method; assay type: functional; conditions: Pseudomonas aeruginosa
Staphylococcus aureus [15] = assay: Bactericidal activity against methicillin resistant Staphylococcus aureus ATCC BAA-1556 assessed as time required for complete reduction of bacterial growth at MIC by counting formed colonies; assay type: functional
Staphylococcus aureus [16] = assay: Bactericidal activity against methicillin resistant Staphylococcus aureus ATCC BAA-1556 assessed as time required for complete reduction of bacterial growth at 4 times MIC by counting formed colonies; assay type: functional
Escherichia coli [17] = assay: Antibacterial activity against Escherichia coli ATCC 25922 incubated for 24 hrs; assay type: functional
Staphylococcus aureus [18] = assay: Bactericidal activity against methicillin resistant Staphylococcus aureus ATCC BAA-1556 assessed as reduction of bacterial growth at MIC by counting formed colonies; assay type: functional, organism-based; conditions: time <= 4.0 hrs, TDE = time-dependent effect
Klebsiella pneumoniae [19] = assay: Antibacterial activity against carbapenem-resistant Klebsiella pneumoniae ATCC BAA-2470 incubated for 24 hrs by microtiter plate method; assay type: functional
Escherichia coli [20] = assay: Bactericidal activity against Escherichia coli ATCC BAA-2452 assessed as reduction of bacterial growth at 4 times MIC by counting formed colonies; assay type: functional, organism-based; conditions: time <= 4.0 hrs, TDE = time-dependent effect
Klebsiella pneumoniae [21] = assay: Antibacterial activity against Klebsiella pneumoniae ATCC 13883 […] incubated for 24 hrs by microtiter plate method; assay type: functional
[22] = Hemolytic activity in human RBC assessed as hemolysis incubated for 2 hrs by spectrophotometer analysis; assay type: toxicity, cell-based, Erythrocyte; conditions: human red blood cells (erythrocytes)
Staphylococcus aureus [23] = assay: Antibacterial activity against methicillin resistant Staphylococcus aureus ATCC BAA-1556 incubated for 24 hrs by microtiter plate method; assay type: functional; conditions: Staphylococcus aureus, ATCC BAA-1556, 24 h, read-out: MIC
[24] = ATCC 25922, 24 h, read-out: MIC
[25] = ATCC 27883, 24 h, read-out: MIC

## CC[C@H](C)CCCCC(=O)N[C@@H](CCN)C(=O)N[C@H](C(=O)N[C@@H](CCN)C(=O)N[C@H]1CCNC(=O)[C@H]([C@@H](C)O)NC(=O)[C@H](CCN)NC(=O)[C@H](CCN)NC(=O)[C@H](CC(C)C)NC(=O)[C@@H](Cc2ccccc2)NC(=O)[C@H](CCN)NC1=O)[C@@H](C)O (X1-[Dab]T[Dab][Dab][Dab][dF]L[Dab][Dab]T; lactam 4-C)
Escherichia coli [1]
  MIC: 0.7 µg/mL (≈ 0.582 µM)
Escherichia coli [2]; ATCC 25922, read-out: MIC
  MIC: 0.7 µg/mL (≈ 0.582 µM)
Escherichia coli [3]
  MIC: 0.7 µg/mL
Escherichia coli [4]
  MIC: 1.5 µg/mL
Escherichia coli [5]
  Activity: Tde
Staphylococcus aureus [6]
  Activity: Tde
Escherichia coli [7]
  MIC: 0.7 µg/mL
Escherichia coli [8]
  MIC: 3.1 µg/mL
Staphylococcus aureus [9]
  MIC: 0.7 µg/mL (≈ 0.582 µM)
Pseudomonas aeruginosa [10]
  MIC: 0.7 µg/mL (≈ 0.582 µM)
Pseudomonas aeruginosa [11]
  MIC: 0.7 µg/mL (≈ 0.582 µM)
Escherichia coli [12]
  MIC: 0.7 µg/mL
Escherichia coli [13]
  MIC: 0.7 µg/mL
Acinetobacter baumannii
  MIC: 0.7 µg/mL (≈ 0.582 µM)
Pseudomonas aeruginosa [14]; ATCC 27883, read-out: MIC
  MIC: 0.7 µg/mL (≈ 0.582 µM)
Staphylococcus aureus [15]
  Activity: Active
Staphylococcus aureus [16]
  Activity: Active
Escherichia coli [17]
  MBC: 3.1 µg/mL (≈ 2.58 µM)
Staphylococcus aureus [18]
  Activity: Tde
Klebsiella pneumoniae [19]
  MIC: 1.5 µg/mL (≈ 1.25 µM)
Escherichia coli [20]
  Activity: Tde
Klebsiella pneumoniae [21]
  MIC: 6.2 µg/mL (≈ 5.15 µM)

## N=C(N)NCCC[C@@H]1NC(=O)[C@H](CCCNC(=N)N)NC(=O)[C@H](CCCNC(=N)N)NC(=O)[C@H](Cc2ccc3ccccc3c2)NC(=O)[C@H](Cc2ccc3ccccc3c2)NC(=O)[C@H](Cc2ccc3ccccc3c2)NC(=O)[C@H](CCCNC(=N)N)NC(=O)[C@H](CCCNC(=N)N)NC1=O (cyclo([2Nal][2Nal][2Nal]RRRRR))
Escherichia coli [2]; [24]
  MIC: 50 µg/mL (≈ 36.4 µM)
[22]
  HC50 at 2 h: 90 µg/mL
Staphylococcus aureus [9]
  MIC: 3.1 µg/mL (≈ 2.26 µM)
Pseudomonas aeruginosa [14]; [25]
  MIC: 25 µg/mL (≈ 18.2 µM)
Staphylococcus aureus [23]
  MIC: 6.2 µg/mL (≈ 4.52 µM)

## N=C(N)NCCC[C@@H]1NC(=O)[C@H](CCCNC(=N)N)NC(=O)[C@H](CCCNC(=N)N)NC(=O)[C@H](Cc2ccc3ccccc3c2)NC(=O)[C@H](Cc2ccc3ccccc3c2)NC(=O)[C@H](Cc2ccc3ccccc3c2)NC(=O)[C@H](Cc2ccc3ccccc3c2)NC(=O)[C@H](CCCNC(=N)N)NC1=O (cyclo([2Nal][2Nal][2Nal][2Nal]RRRR))
Escherichia coli [2]; [24]
  MIC: 25 µg/mL (≈ 17.7 µM)
[22]
  HC50 at 2 h: 30 µg/mL
Staphylococcus aureus [9]
  MIC: 3.1 µg/mL (≈ 2.19 µM)
Pseudomonas aeruginosa [14]; [25]
  MIC: 50 µg/mL (≈ 35.4 µM)
Staphylococcus aureus [23]
  MIC: 6.2 µg/mL (≈ 4.39 µM)

## N=C(N)NCCC[C@@H]1NC(=O)[C@H](CCCNC(=N)N)NC(=O)[C@H](CCCNC(=N)N)NC(=O)[C@H](C(c2ccccc2)c2ccccc2)NC(=O)[C@H](C(c2ccccc2)c2ccccc2)NC(=O)[C@H](CCCNC(=N)N)NC1=O (cyclo([Dip][Dip]RRRR))
Escherichia coli [2]; [24]
  MIC: 50 µg/mL (≈ 46.7 µM)
[22]
  HC50 at 2 h: 110 µg/mL
Staphylococcus aureus [9]
  MIC: 6.2 µg/mL (≈ 5.79 µM)
Pseudomonas aeruginosa [14]; [25]
  MIC: 25 µg/mL (≈ 23.3 µM)
Staphylococcus aureus [23]
  MIC: 6.2 µg/mL (≈ 5.79 µM)

## NCCCC[C@@H]1NC(=O)[C@H](CCCCN)NC(=O)[C@H](CCCCN)NC(=O)[C@H](C(c2ccccc2)c2ccccc2)NC(=O)[C@H](C(c2ccccc2)c2ccccc2)NC(=O)[C@H](C(c2ccccc2)c2ccccc2)NC(=O)[C@H](CCCCN)NC1=O (cyclo([Dip][Dip][Dip]KKKK))
Escherichia coli [2]; [24]
  MIC: > 100 µg/mL
[22]
  HC50 at 2 h: 165 µg/mL
Staphylococcus aureus [9]
  MIC: 12.5 µg/mL (≈ 10.6 µM)
Pseudomonas aeruginosa [14]; [25]
  MIC: > 100 µg/mL
Staphylococcus aureus [23]
  MIC: 12.5 µg/mL (≈ 10.6 µM)

## NCCCC[C@@H]1NC(=O)[C@H](CCCCN)NC(=O)[C@H](CCCCN)NC(=O)[C@H](C(c2ccccc2)c2ccccc2)NC(=O)[C@H](C(c2ccccc2)c2ccccc2)NC(=O)[C@H](C(c2ccccc2)c2ccccc2)NC(=O)[C@H](CCCCN)NC(=O)[C@H](CCCCN)NC1=O (cyclo([Dip][Dip][Dip]KKKKK))
Escherichia coli [2]; [24]
  MIC: 50 µg/mL (≈ 38.1 µM)
[22]
  HC50 at 2 h: 180 µg/mL
Staphylococcus aureus [9]
  MIC: 6.2 µg/mL (≈ 4.73 µM)
Pseudomonas aeruginosa [14]; [25]
  MIC: > 100 µg/mL
Staphylococcus aureus [23]
  MIC: 12.5 µg/mL (≈ 9.54 µM)
